Columns and labels:
[1] = test system: rat visual cortex slices; assay: Long-term potentiation in visual cortex slice; type: cell-based; conditions: LTP at 30 min after induction; for threshold dose for dose-dependent facilitation of LTP: rat visual cortex slices, drug infused 20 min before theta burst stimulation
Procedure: Following decapitation of the anesthetized rat, the brain was rapidly removed and immersed in ice-cold artificial cerebrospinal fluid (ACSF) containing (in mM) NaCl 124, KCl 3, KH2PO4 1.25, CaCl2 3.4, MgSO4 2.5, NaHCO3 26, and D-glucose 10. A block of visual cortex was created by removing the frontal ⅔ portion of the brain and the cerebellum. Coronal visual cortex slices of 350 μm thick were prepared from young adult (200-300 g) male Sprague-Dawley rats using a vibratome (VT 1000 S; Leica). The slices were maintained in an interface recording chamber perfused with preheated ACSF. Slices were continuously perfused with this solution at a rate of 1.00-1.50 ml/min while the surface of the slices was exposed to warm, humidified […] and maintained at 31±1° C. Visual cortex slices were allowed to recover for 1 hr before recording began. A single stimulating and recording electrode was placed in layer IV and III, respectively, to generate and record field excitatory postsynaptic potentials (fEPSPs). Pulses were administered at 0.05 Hz using a current that produced a fEPSP that is 50% of the maximum spike free response. An input-output (IO) curve was done to determine the stimulation needed to achieve a stable baseline. Following a 15 min stable baseline recording period, a train of 5 theta bursts (each burst containing four pulses at 100 Hz with an inter-burst interval of 200 ms) was delivered to the slice. This was repeated 2 additional times with a 1 minute inter-train interval, and the level of LTP was recorded for at least 30 min. Changes in amplitude of the synaptic response were used to measure the extent of LTP, since the amplitude was determined to be the more consistent parameter than the slope of the response. Control LTP values were obtained from slices not treated with drug. Different slices were used to study drug effects on LTP. Compound 4-bromo-N-(imidazolidin-2-ylidene)-1H-benzimidazol-5-amine or (S)-(3-(1-(1H-imidazol-4-yl)ethyl)-2-methylphenyl)methanol) was infused after 15 min baseline recording for a duration of 20 minutes followed by LTP induction. Drug washout began 5 minutes after tetanization. Recording of the amplitude before, during, and after drug infusion was continuously done at 0.05 Hz. Statistical comparisons were done with LTP values recorded at 30 minutes after induction for drug-treated vs control slices (non-paired t-test).
In brief, brain slices from primary visual cortex were prepared and recording of evoked field responses was done as described in the ‘general procedure’ section. A typical LTP run began with establishing a stable baseline, then treatment for 20 min with 4-bromo-N-(imidazolidin-2-ylidene)-1H-benzimidazol-5-amine followed by LTP induction via brief high-frequency theta burst stimulation (TBS) and drug washout 5 min after TBS, and ended after monitoring the amount of LTP for at least 30 min. Control LTP was measured in a group of separate slices within the same chamber infused with aCSF. The amount of LTP present at 30 min after induction was used to compare drug effects at different concentrations relative to the control group. […] The percent increase in LTP was shown relative to the pre-LTP baseline for each condition.
The percent increase in LTP was shown relative to the pre-LTP baseline for each condition.

[2] = rats, after oral dose of brimonidine tartrate (Acheampong et al., Xenobiotica 2007); cited from earlier work

| Compound | LTP compared to control slices ([1]; 100 nM) | LTP compared to control slices ([1]; 300 nM) | threshold dose for dose-dependent facilitation of LTP [1] | LTP compared to control slices ([1]; 3 nM) | LTP compared to control slices ([1]; 30 nM) | amount found in urine [2] |
| --- | --- | --- | --- | --- | --- | --- |
| Cc1c(CO)cccc1[C@H](C)c1c[nH]cn1 [(S)-(3-(1-(1H-imidazol-4-yl)ethyl)-2-methylphenyl)methanol] | significantly facilitated | significantly facilitated | 100 nM |  |  |  |
| Brc1c(N=C2NCCN2)ccc2[nH]cnc12 [4-bromo-N-(imidazolidin-2-ylidene)-1H-benzimidazol-5-amine] |  | significantly facilitated | 3 nM | significantly facilitated | significantly facilitated | trace amounts |
